These results are taken from patent US10111883B1, “Selective P2X3 modulators” (BELLUS Health inc., priority 2017, dated 2018).

For series [1], the system named is P2X3 and P2X2/P2X3 channel. Kind of series: Fluo-8 calcium assay, antagonism of P2X3 versus P2X2/P2X3 channels in HEK293 cells. The conditions noted are these: human P2X3 and P2X2/P2X3 in HEK293 cells, meATP stimulation; IC50s only in FIG. 3. The format is cell-based. How it is done: The ability of the compounds described herein and Gefapixant (also known as AF-219) to act as an antagonist of the P2X3 and P2X2/P2X3 channel (encoded by the human P2RX2 and P2RX3 genes, stably expressed in HEK293 cells) was evaluated with a Fluo-8 calcium kit. Compounds 1, 2, 9, 11, 15, and AF-219 were evaluated at twelve concentrations.
For the antagonist effect assessment, the cells were pre-incubated with Compounds 1, 2, 9, 11, 15, and AF-219 for 20 minutes, then stimulated with the P2X3 and P2X2/P2X3 agonist α,β-methyleneATP (meATP) at final concentrations of 3 μM and 30 μM. Four minutes fifty seconds after addition of meATP, ionomycin was added at a final concentration of 5 μM in order to obtain the maximum calcium influx and fluorescence signal possible from the cells. Fluorescence was recorded continuously for 10 minutes, starting 10 seconds prior to the addition of meATP.

In series [2] the test system is guinea pig cough model (citric acid and histamine). The series is described as follows: Guinea pig cough response model (dose response). The format is in vivo. The conditions noted are these: for reduction in cough vs. control: 2 hours prior to citric acid and histamine, coughs counted 15 minutes, statistically significant; for reduction in cough frequency as compared to the control (dose dependence): 0.3, 3 and 30 mg/kg oral. The text has this:
The anti-tussive effect of Compound 1 was compared to that of AF-219 in a guinea pig cough model. Guinea pigs are the most commonly used animal in cough studies for both the investigation of the cough reflex at a fundamental level and for use as an antitussive screen (Mackensie et al., Drug Discovery Today, 2004, 1, 297-302). In the guinea pig, it was shown that exposure to ATP and histamine aerosols increases cough responses to tussive stimuli via P2X3 receptor-mediated mechanisms (Kamei et al., Eur J Pharmacol (2005) 528: 158-161; Kamei et al., Eur J Pharmacol (2006) 547: 160-164).
(§1) Treatments (control, Compound 1 (0.3, 3 and 30 mg/kg) or AF-219 (0.3, 3 or 30 mg/kg)) were administered orally in seven groups of 6 animals 2 hours prior to tussive agent exposure (citric acid and histamine) and the number of coughs were counted for a period of 15 minutes.

For series [3] the test system is unchanged. Kind of series: Time course study in guinea pig cough response model. The format is in vivo. The note with it: single oral 30 mg/kg; for anti-tussive effect (significance): 8 hours post-dose. The method, then:
as §1
Using the same guinea pig cough model as described in Example 2, a time course study was conducted to assess the duration of the anti-tussive effect of Compound 1 and AF-219 following the administration of a single oral 30 mg/kg dose. In this study, animals in groups of 6 were exposed to tussive agents (citric acid and histamine) at various times after the administration of the study drugs (2, 4, 6, 8 and 12 hours post-dose for Compound 1; and 2 and 8 hours post-dose for AF-219) and the number of coughs were measured for 15 minutes.

Another series relates to taste function. The series is described as follows: Two bottle taste study (water vs quinine). It is filed as in vivo, rat. The conditions noted are these: 10 or 20 mg/kg intraperitoneally; for effect on taste function: rat; for quinine drunk relative to control: rats water-fasted overnight, volume measured for 15 minutes at Cmax. The method, then:
A rat taste model was used to compare the effect of Compound 1 on taste function with that of AF-219. Animals were water-fasted overnight and presented with one bottle of water and one bottle of (bitter-tasting) quinine at the time corresponding to the maximum plasma concentration of study drugs; and the volume of liquid consumed from each bottle was measured for 15 minutes. Treatments (control, Compound 1 (10 or 20 mg/kg) or AF-219 (10 or 20 mg/kg)) were administered intraperitoneally in two groups of 10 rats.

Regarding `CNC(=O)c1ccc(-c2nc3cc(Cl)ccn3c2C[C@H]2CN(C(C)=O)CCO2)c(C)c1` [Compound 11], in series [1], the “selectivity as P2X3 antagonist (P2X3 versus P2X2/3)” value (“selectivity as P2X3 antagonist” below) is on record as “selective P2X3 antagonists”.
On the same count and under the same terms, the result for `CNC(=O)c1cc(F)c(-c2nc3cc(Cl)ccn3c2C[C@H]2CN(C(C)=O)CCO2)c(F)c1` [Compound 15] reads “selective P2X3 antagonists”; that for `CNC(=O)c1cc(F)c(-c2nc3cc(C)ccn3c2C[C@H]2CN(C(C)=O)CCO2)cc1F` [Compound 9], “selective P2X3 antagonists”.
Take `CNC(=O)c1cc(F)c(-c2nc3cc(C)ccn3c2C[C@H]2CN(C(=O)OC)CCO2)c(F)c1` [Compound 1]: in series [1], the “selectivity as P2X3 antagonist” value is on record as “selective P2X3 antagonists”. For the same compound, the “reduction in cough vs. control” value in series [2] (3 mg/kg oral) was 39%; in series [2] (30 mg/kg oral), 52%. Also, the “reduction in cough frequency as compared to the control (dose dependence)” value in series [2] is given as “comparable dose-dependent reduction in cough frequency”. In addition, the “duration of anti-tussive effect” value in series [3] was “comparable duration of effect”. Moreover, the “reduction in cough frequency compared to control (significance)” value in series [3] (2 hours post-dose), in series [3] (4 hours post-dose) and in series [3] (6 hours post-dose) was “statistically significant” in each case. In addition, the “anti-tussive effect (significance)” value in series [3] is given as “no longer significant”. The “effect on taste function” value in the series with taste function is “did not”. Further, the “quinine drunk relative to control” value in the series with taste function is “did not drink more quinine than the control animals”.
Turning to `COc1cc(C(C)C)c(Oc2cnc(N)nc2N)cc1S(N)(=O)=O` [AF-219, Gefapixant, reference compound], the “reduction in cough vs. control” value in series [2] (30 mg/kg oral) came to 45%. Moreover, the “reduction in cough frequency as compared to the control (dose dependence)” value in series [2] is given as “comparable dose-dependent reduction in cough frequency”. Also, in series [3], the “duration of anti-tussive effect” value is “comparable duration of effect” and the “anti-tussive effect (significance)” value is listed as “no longer significant”. Further, in series [3] (2 hours post-dose), the “reduction in cough frequency compared to control (significance)” value is on record as “statistically significant”. In the series with taste function, the “effect on taste function” value was “altered taste function” and the “quinine drunk relative to control” value is listed as “approximately 5 times”.
Consider `CCC(=O)N1CCO[C@@H](Cc2c(-c3c(F)cc(C(=O)NC)cc3F)nc3cc(C)ccn23)C1` [Compound 2], for which the “selectivity as P2X3 antagonist” value in series [1] is reported as “selective P2X3 antagonists”.
